Measurements from patent US9974776B2, “Estrogen receptor beta agonists for use in treating mesothelioma” (Karo Pharma AB, priority 2013, dated 2018).

Assays:
REN cells [1] = assay: Cell cycle analysis (propidium iodide, flow cytometry) in REN cells; format: cell-based, human; conditions: 10 nM 2 hours pre-treatment, then 100 μM cisplatin 24 hours
Procedure: For cell cycle/apoptosis analysis, 5×10^5 cells were seeded in tissue culture plates and treated with 100 μM cisplatin for 24 hours or pre-treated for 2 hours with 10 nM Compound (I) followed by wash-off and continued growth in normal medium±100 μM cisplatin, for additional 24 hours at 37° C. in a 5% CO2 atmosphere. After incubation, detached and suspended cells were harvested in complete RPMI and centrifuged at 500×g for 10 minutes. Pellets were washed with PBS, fixed in ice-cold 75% ethanol at 4° C., treated with […] RNAse A for 1 hour at 37° C., stained with 25 μg/mL propidium iodide and finally analyzed by using a flow cytometer FACS (Becton Dickinson, San Jose, Calif., USA) and Modfit software (Verity Software House, Topsham, Me., USA).
REN cells were treated for 24 hours with 100 μM cisplatin or pre-treated 2 hours with 10 nM Compound (I) followed by wash-off and continued growth in normal medium±100 μM cisplatin, for an additional 24 hours. Cell cycle analysis was performed as described above. Control cultures were maintained in normal growth medium. After treatments, cells were stained with propidium iodide and analysed for cellular DNA content by flow cytometry.

AKT phosphorylation [2] = assay: Western blot of AKT phosphorylation in REN cells; format: cell-based, human; conditions: 10 nM 2 hours pre-treatment, ± cisplatin
Procedure: (§1) Cells were extracted with 1% NP-40 lysis buffer (1% NP-40, 150 mM NaCl, 50 mM Tris-HCl pH 8.5 mM EDTA, 10 mM NaF, 10 mM Na4P2O7, 0.4 mM Na3VO4) with freshly added protease inhibitors (10 μg/ml leupeptin, 4 μg/ml pepstatin and 0.1 Unit/ml aprotinin). For protein extraction from tissues, ˜100 mg of each sample were homogenized, using a Potter-Elvehjem homogenizer device, in 1% NP-40 lysis buffer. Lysates were centrifuged at 13.000×g for 10 minutes at 4° C. and the supernatants were collected and assayed for protein concentration with the Bio-Rad protein assay method.
(§2) Proteins were separated by SDS-PAGE under reducing conditions. Following SDS-PAGE, proteins were transferred to nitrocellulose, reacted with specific antibodies and then detected with peroxidase-conjugate secondary antibodies and chemioluminescent ECL reagent. Densitometric analysis was performed using the GS 250 Molecular Image (Bio-Rad).
Levels of PARP1, cleaved PARP1, AKT and phosphorylated AKT in REN cells treated for 24 hours with cisplatin (25, 50 and 100 μM) or pre-treated 2 hours with Compound (I) (10 nM) followed by wash-off and continued growth in normal medium±cisplatin (25, 50 and 100 μM), for an additional 24 hours were also determined by Western blot analysis and relative densitometry. […] PARP1 cleavage was analysed as it is an indicator of apoptotic cell death. […]

REN cells [3] = assay: Proliferation assay (Trypan blue viable cell count; wash-off and add-on experiments) in REN cells; format: cell-based, human
Procedure: (§3) Cells were seeded at a density of 10×10^4 cells/well in 6-well plates in RPMI medium supplemented with 10% FBS, 100 μg/ml streptomycin and 10 μg/ml penicillin and incubated over-night at 37° C. in a humidified environment containing 5% CO2 to allow adherence. Following treatment cells were trypsinized and stained with Trypan blue. The number of cells considered viable (unstained cells) was counted in a Bürker haemocytometer within 5 minutes after staining.
Control cultures were maintained in normal growth medium without added drug. The number of viable cells was determined as described for the proliferation assay.
In the add-on experiments the second drug was added directly to the cell culture medium without wash-off of the first drug. […] Control cultures were maintained in normal growth medium without added drug. The number of viable cells was determined as described for the proliferation assay.

MSTO-211H/ERβ cells = assay: Proliferation assay in MSTO-211H cells transfected with ERβ expression vector; format: cell-based; conditions: 10 nM, 24 and 48 hours; transient transfection with ERβ expression vector
Description: The epithelioid MPM derived REN cell line was isolated, characterized and provided by Dr. Albelda S. M. (University of Pennsylvania, Philadelphia; PA, USA). The biphasic MSTO-211H and the mesothelial MET5A cell lines were obtained from the Istituto Scientifico Tumori (IST) Cell-bank, Genoa, Italy; the MMB and MMP cell lines have been derived from pleural effusions of patients with MPM and stabilized in culture (Cacciotti P, et al., Proc Natl Acad Sci USA 2001; 98:12032-7; Pinton G., et al, Cancer Res 2009; 69:4598-604); the H2596 cell line was produced by Dr. H. I. Pass from surgical specimens derived from patients with resected MPM (Pass H. I., et al., Ann Thorac Surg 1995; 59(4):835-44). Cells were grown in RPMI medium supplemented with 10% FBS, […] streptomycin and 10 μg/ml penicillin at 37° C. in a humidified environment containing 5% CO2. Mycoplasma infection was excluded by the use of Mycoplasma Plus™ PCR Primer Set kit from Stratagene (La Jolla, Calif., USA). […]
as §3, with “Following treatment cells were trypsinized and stained with Trypan blue.” left out

H2596 cells = assay: Proliferation assay in H2596 cells; format: cell-based; conditions: 10 nM single agent, 24 and 48 hours; very low ERβ
Procedure: as §3

PARP1 cleavage = assay: Western blot of PARP1 cleavage in MMP cells; format: cell-based, human; conditions: 10 nM two hours, wash-off, 50 μM cisplatin
Procedure: as §1, §2
(§4) Levels of PARP1, cleaved PARP1, AKT and phosphorylated AKT in the MMP cell cultures at 24 hours were also determined by Western blot analysis.

AKT phosphorylation [4] = assay: Western blot of AKT phosphorylation in MMP cells; format: cell-based, human; conditions: 10 nM 2 hours pre-treatment, ± 50 μM cisplatin
Procedure: as §1, §2, §4

MMB cells = assay: Proliferation assay in MMB cells; format: cell-based; conditions: 10 nM single agent, 24 and 48 hours
Procedure: as §3

Cc1noc(C)c1-c1c(/C(N)=N/O)c2ccccc2n1-c1ccc(O)cc1 [Compound (I)]
cell cycle phase distribution (REN cells [1]): significant and efficient blockage of the cell cycle in the G0/G1 phase and inhibition of cells entering the S-phase
percentage of dead cells (REN cells [1]): significant higher percentage of dead cells
AKT phosphorylation in REN cells (AKT phosphorylation [2]): significantly reduced AKT phosphorylation both in the absence and in the presence of cisplatin
anti-proliferative effect, pre-treatment then 20 μM cisplatin (REN cells [3]; 10 nM 2 hours, wash-off, 20 μM cisplatin for additional 24 hours): as efficacious as 100 μM cisplatin alone
inhibitory effect on cell growth and viability, pre-treatment then cisplatin/pemetrexed (REN cells [3]; 10 nM 2 hours, wash-off, cisplatin 100 μM and pemetrexed 22 μM for additional 24 hours): strong synergistic inhibitory effect on cell growth and viability
inhibitory effect on cell growth and viability, pre-treatment then cisplatin (REN cells [3]; 10 nM 2 hours, wash-off, cisplatin 100 μM for additional 24 hours): strong synergistic inhibitory effect on cell growth and viability
anti-proliferative effect, pre-treatment then cisplatin 20-100 μM (REN cells [3]; 10 nM 2 hours, wash-off, cisplatin for additional 24 hours): most efficacious anti-proliferative effect was observed when Compound (I) pre-treatment was combined with the highest concentration of cisplatin (100 μM)
enhancement of anti-proliferative effect of pemetrexed (REN cells [3]; 10 nM 2 hours, wash-off, pemetrexed 5-22 μM for additional 24 hours): No enhanced anti-proliferative effect
synergy when cisplatin is given first (reverse order) (REN cells [3]; 10 nM Compound (I) added 2, 4, 8, 12 hours after start of 100 μM cisplatin, 24 hours): did not result in synergistic inhibition of cell growth and viability
growth inhibition versus single agents, cisplatin given first (REN cells [3]; 10 nM Compound (I) added after 100 μM cisplatin, 24 hours): greater growth inhibition than cells treated with only one of the agents
inhibition of proliferation, REN cells (REN cells [3]; 10 nM single agent, 24 and 48 hours): significantly (p≤0.05) inhibited proliferation
growth inhibitory activity after brief exposure and wash-off (REN cells [3]; 10 nM, 2 hours exposure, total incubation 24 hours): significantly (p≤0.05) increased growth inhibitory activity relative to 1 hour exposure and exposures longer than 8 hours
enhancement of anti-proliferative effect of cisplatin, add-on experiment (REN cells [3]; 100 μM cisplatin added 2, 4, 8, 12 hours after start of 10 nM Compound (I), 24 hours): greatest inhibitory effect obtained when adding cisplatin after 2 hours of Compound (I) pre-treatment
concentration dependence of anti-proliferative effect after 2 hours pre-treatment (REN cells [3]; 0.4, 2 and 10 nM, wash-off, 24-72 hours): largest anti-proliferative effect was observed with the highest Compound (I) concentration used
duration of inhibitory effect on REN cell proliferation (REN cells [3]; 2-hours pre-treatment with 0.4, 2 or 10 nM, wash-off, irrespective of concentration): at least 24 hours
growth inhibition of REN cells (REN cells [3]; 24 hours treatment, range 1-100 nM, versus untreated cells): significantly (p≤0.05) reduced cell growth and viability in a dose-dependent manner
dose of highest efficacy for growth inhibition (REN cells [3]; REN cells, 24 hours, range 1-100 nM tested): 10 nM
isobologram analysis of combination with cisplatin (REN cells [3]; analysis of Example 4(b) results (FIG. 4F)): synergistic effect
inhibition of proliferation, MSTO-211H/ERβ cells (MSTO-211H/ERβ cells): sensitized these cells to Compound (I)
inhibition of proliferation, H2596 cells (H2596 cells): weak response
level of cleaved PARP1 in MMP cells (PARP1 cleavage): most significant increase in the level of cleaved PARP1
AKT phosphorylation in MMP cells (AKT phosphorylation [4]): significantly reduced AKT phosphorylation both in the absence and in the presence of cisplatin
inhibition of proliferation, MMB cells (MMB cells): significantly (p≤0.05) inhibited proliferation
